Tested on: P. acnes
Assay: Agar dilution method, growth of P. acnes and MIC, combinations with a fatty acid spike
Assay type: cell-based, Propionibacterium acnes
Set-up: key to Growth Index Plate 1 / Growth Index Plate 2 / Growth Index Plate 3 / Growth Index Avg: +++: confluent growth (comparable to control); ++: less confluent growth; +: marked reduction in growth to multiple tiny, single colonies; −: no growth present
Method: Several compounds including fatty acids such as DGLA, 15-OHEPA, and 15-HETrE were tested to determine their capacity to inhibit the growth of P. acnes. In an exemplary method, an agar dilution method was used to determine the minimum inhibitory concentration (MIC) of each tested compound. Briefly, the agar dilution method involved preparing a series of concentrations of each compound (e.g., nicotinamide, benzoyl peroxide, adapalene, metronidazole, DGLA, 15-OHEPA, and 15-HETrE) in a Reinforced Clostridial Agar (RCA) media that facilitates growth of P. acnes under anaerobic conditions. An inoculum of P. acnes was prepared by incubation of P. acnes for approximately seven days at 35-37° C. to achieve a ≧1.0 OD600 inoculum of P. acnes in RCM broth. A portion of this inoculum was then added to the surface of each plate as a 10 μL spot and incubated at 35-37° C. for 72 hours or more. Growth of P. acnes was then observed and compared to control plates in which no compound has been added, and positive inhibition plates prepared with erythromycin. […] The growth of P. acnes in the presence of nicotinamide, benzoyl peroxide, adapalene, metronidazole, DGLA, 15-OHEPA, and 15-HETrE was determined with varying concentrations of the compound (see, Table 2). Next, the MIC was determined as the concentration at which a marked reduction (+) occurs in the appearance of growth on the test plate (as per Clinical and Laboratory Standards Institute M11-A7).
The compounds tested singly in Example 1 were tested in combination with one another to determine the capacity of the combination to inhibit the growth of P. acnes. In an exemplary method, the MIC was determined for each of the combination as described in Example 1. Briefly, test combinations included DGLA with nicotinamide, benzoyl peroxide, adapalene, or metronidazole; 15-HETrE with nicotinamide, benzoyl peroxide, adapalene, or metronidazole; and 15-OHEPA with nicotinamide, benzoyl peroxide, adapalene, or metronidazole. The tables below show the growth of P. acnes in the presence of 0.4 or 1.0 mg/mL DGLA with varying concentrations of nicotinamide, benzoyl peroxide, adapalene, or metronidazole (Table 3); the growth of P. acnes in the presence of 0.01 or 0.05 mg/mL 15-HETrE with varying concentrations of nicotinamide, benzoyl peroxide, adapalene, or metronidazole (Table 5); and the growth of P. acnes in the presence of 0.5 or 0.1 mg/mL 15-OHEPA with varying concentrations of nicotinamide, benzoyl peroxide, adapalene, or metronidazole (Table 7).

[1] = compound at 0.2 mg/mL + 0.01 mg/mL 15-HETrE
[2] = compound at 0.2 mg/mL + 0.05 mg/mL 15-HETrE
[3] = compound at 0.2 mg/mL + 0.05 mg/mL 15-OHEPA
[4] = compound at 0.2 mg/mL + 0.1 mg/mL 15-OHEPA
[5] = compound at 0.2 mg/mL + 0.4 mg/mL dGLA
[6] = compound at 0.2 mg/mL + 1.0 mg/mL dGLA
[7] = compound at 0.4 mg/mL + 0.01 mg/mL 15-HETrE
[8] = compound at 0.4 mg/mL + 0.05 mg/mL 15-HETrE
[9] = compound at 0.4 mg/mL + 0.05 mg/mL 15-OHEPA
[10] = compound at 0.4 mg/mL + 0.1 mg/mL 15-OHEPA
[11] = compound at 0.4 mg/mL + 0.4 mg/mL dGLA
[12] = compound at 0.4 mg/mL + 1.0 mg/mL dGLA
[13] = compound at 0.6 mg/mL + 0.01 mg/mL 15-HETrE
[14] = compound at 0.6 mg/mL + 0.05 mg/mL 15-HETrE
[15] = compound at 0.6 mg/mL + 0.05 mg/mL 15-OHEPA
[16] = compound at 0.6 mg/mL + 0.1 mg/mL 15-OHEPA
[17] = compound at 0.6 mg/mL + 0.4 mg/mL dGLA
[18] = compound at 0.6 mg/mL + 1.0 mg/mL dGLA
[19] = compound at 0.8 mg/mL + 0.01 mg/mL 15-HETrE
[20] = compound at 0.8 mg/mL + 0.05 mg/mL 15-HETrE
[21] = compound at 0.8 mg/mL + 0.05 mg/mL 15-OHEPA
[22] = compound at 0.8 mg/mL + 0.1 mg/mL 15-OHEPA
[23] = compound at 0.8 mg/mL + 0.4 mg/mL dGLA
[24] = compound at 0.8 mg/mL + 1.0 mg/mL dGLA
[25] = compound at 1.0 mg/mL + 0.01 mg/mL 15-HETrE
[26] = compound at 1.0 mg/mL + 0.05 mg/mL 15-HETrE
[27] = compound at 1.0 mg/mL + 0.05 mg/mL 15-OHEPA
[28] = compound at 1.0 mg/mL + 0.1 mg/mL 15-OHEPA
[29] = compound at 1.0 mg/mL + 0.4 mg/mL dGLA
[30] = compound at 1.0 mg/mL + 1.0 mg/mL dGLA

O=C(OOC(=O)c1ccccc1)c1ccccc1 [Benzoyl Peroxide]
Growth Index Avg [1]: +++
Growth Index Plate 1 [1]: +++
Growth Index Plate 2 [1]: +++
Growth Index Plate 3 [1]: +++
Growth Index Avg [2]: −
Growth Index Plate 1 [2]: −
Growth Index Plate 2 [2]: −
Growth Index Plate 3 [2]: −
Growth Index Avg [3]: +++
Growth Index Plate 1 [3]: +++
Growth Index Plate 2 [3]: +++
Growth Index Plate 3 [3]: +++
Growth Index Avg [4]: −
Growth Index Plate 1 [4]: −
Growth Index Plate 2 [4]: −
Growth Index Plate 3 [4]: −
Growth Index Avg [5]: +++
Growth Index Plate 1 [5]: +++
Growth Index Plate 2 [5]: +++
Growth Index Plate 3 [5]: +++
Growth Index Avg [6]: ++
Growth Index Plate 1 [6]: ++
Growth Index Plate 2 [6]: ++
Growth Index Plate 3 [6]: +
Growth Index Avg [7]: +++
Growth Index Plate 1 [7]: +++
Growth Index Plate 2 [7]: +++
Growth Index Plate 3 [7]: +++
Growth Index Avg [8]: −
Growth Index Plate 1 [8]: −
Growth Index Plate 2 [8]: −
Growth Index Plate 3 [8]: −
Growth Index Avg [9]: ++
Growth Index Plate 1 [9]: ++
Growth Index Plate 2 [9]: ++
Growth Index Plate 3 [9]: ++
Growth Index Avg [10]: −
Growth Index Plate 1 [10]: −
Growth Index Plate 2 [10]: −
Growth Index Plate 3 [10]: −
Growth Index Avg [11]: −
Growth Index Plate 1 [11]: +
Growth Index Plate 2 [11]: −
Growth Index Plate 3 [11]: −
Growth Index Avg [12]: −
Growth Index Plate 1 [12]: −
Growth Index Plate 2 [12]: +
Growth Index Plate 3 [12]: −
Growth Index Avg [13]: ++
Growth Index Plate 1 [13]: ++
Growth Index Plate 2 [13]: ++
Growth Index Plate 3 [13]: ++
Growth Index Avg [14]: −
Growth Index Plate 1 [14]: −
Growth Index Plate 2 [14]: −
Growth Index Plate 3 [14]: −
Growth Index Avg [15]: +
Growth Index Plate 1 [15]: +
Growth Index Plate 2 [15]: +
Growth Index Plate 3 [15]: +
Growth Index Avg [16]: −
Growth Index Plate 1 [16]: −
Growth Index Plate 2 [16]: −
Growth Index Plate 3 [16]: −
Growth Index Avg [17]: −
Growth Index Plate 1 [17]: −
Growth Index Plate 2 [17]: −
Growth Index Plate 3 [17]: −
Growth Index Avg [18]: −
Growth Index Plate 1 [18]: −
Growth Index Plate 2 [18]: −
Growth Index Plate 3 [18]: −
Growth Index Avg [19]: +
Growth Index Plate 1 [19]: +
Growth Index Plate 2 [19]: +
Growth Index Plate 3 [19]: +
Growth Index Avg [20]: −
Growth Index Plate 1 [20]: −
Growth Index Plate 2 [20]: −
Growth Index Plate 3 [20]: −
Growth Index Avg [21]: −
Growth Index Plate 1 [21]: −
Growth Index Plate 2 [21]: −
Growth Index Plate 3 [21]: −
Growth Index Avg [22]: −
Growth Index Plate 1 [22]: −
Growth Index Plate 2 [22]: −
Growth Index Plate 3 [22]: −
Growth Index Avg [23]: −
Growth Index Plate 1 [23]: −
Growth Index Plate 2 [23]: −
Growth Index Plate 3 [23]: −
Growth Index Avg [24]: −
Growth Index Plate 1 [24]: −
Growth Index Plate 2 [24]: −
Growth Index Plate 3 [24]: −
Growth Index Avg [25]: −
Growth Index Plate 1 [25]: −
Growth Index Plate 2 [25]: −
Growth Index Plate 3 [25]: −
Growth Index Avg [26]: −
Growth Index Plate 1 [26]: −
Growth Index Plate 2 [26]: −
Growth Index Plate 3 [26]: −
Growth Index Avg [27]: −
Growth Index Plate 1 [27]: −
Growth Index Plate 2 [27]: −
Growth Index Plate 3 [27]: −
Growth Index Avg [28]: −
Growth Index Plate 1 [28]: −
Growth Index Plate 2 [28]: −
Growth Index Plate 3 [28]: −
Growth Index Avg [29]: −
Growth Index Plate 1 [29]: −
Growth Index Plate 2 [29]: −
Growth Index Plate 3 [29]: −
Growth Index Avg [30]: −
Growth Index Plate 1 [30]: −
Growth Index Plate 2 [30]: −
Growth Index Plate 3 [30]: −
growth of P. Acnes in combination with 15-HETrE, compared with 15-HETrE used alone (in combination with 15-HETrE): did not reduce the growth

— patent US20130274338A1, “PHARMACEUTICAL COMPOSITIONS COMPRISING DGLA, 15-OHEPA, AND/OR 15-HETRE AND METHODS OF REDUCING SEBUM PRODUCTION USING SAME” (priority 2012, published 2013)
